Measurements as given in patent US6613734B2, “Peptides-containing liposomal surfactants” (The Scripps Research Institute, priority 1988, dated 2003).
Several values for one entry are separate records, joined by “and”; a condition that tells them apart may be missing. Equal entries are not always repeated. Marks after values point to notes of the source that are not given here.

Experiments:
[1] = pulsating bubble technique ("bubble assay" of Enhorning, Enhorning Surfactometer); assay type: physicochemical; details: for Pressure Gradient 15″: 15 seconds; for Pressure Gradient 15″ / Pressure Gradient 1′ / Pressure Gradient 5′: peptide 10% by weight of PL, 37° C., negative pressure, mean of 3; for Pressure Gradient 1′: 1 minute; for Pressure Gradient 5′: 5 minutes
Protocol: Measurements of surface pressure across an air-liquid interface (expressed in negative cm of H2O pressure) at minimal (γmin) bubble radius were determined at various times using the pulsating bubble technique described by Enhorning, J. Appl. Physiol. 43: 198-203 (1977).
Briefly, the Enhorning Surfactometer (Surfactometer International, Toronto, Ontario) measures the pressure gradient (ΔP) across a liquid-air interface of a bubble that pulsates at a rate of 20 cycles/min between a maximal (0.55 mm) and minimal (0.4 mm) radius. The bubble, formed in a 37° C., water-enclosed, 20-μl sample chamber, is monitored through a microscopic optic while the pressure changes are recorded on a strip chart recorder calibrated for 0 and −2 cm H2O.
Each of the surfactants identified in Table 5 was assayed for surfactant activity as evidenced by their ability to reduce surface tension in vitro using the “bubble assay” of Enhorning as described above.
After admixture with solvent, each peptide was admixed with phospholipids (PL), DPPC:PG, 3:1, in chloroform in a glass tube so that the amount of polypeptide added equaled one-tenth (10% by. weight) of the amount of PL added, to form a surfactant according to either method A, B or C.
Each of the surfactants was then assayed for surfactant activity as evidenced by their ability to reduce surface tension in vitro in the bubble assay performed as described above. The pressure gradient (ΔP) is a measure of surfactant activity in the polypeptide-PL third admixture which was determined using an Enhorning Surfactometer as described above. Measurements were obtained at time points of 15 seconds (15″), 1 minute (1′) and 5 minutes (5′) and are expressed as a mean of three independent measurements of the indicated polypeptide-PL admixture.

[2] = observation whether peptide/solvent admixture formed a solution or a suspension; assay type: physicochemical
Protocol: Each polypeptide was admixed with the indicated solvent at a concentration of 2.5 mg of polypeptide per ml of solvent. […] Those admixtures forming a suspension were further admixed by water bath sonication for 10 seconds to form a very fine suspension, sufficient for pipetting using glass pipettes.

[3] = system: fetal rabbit lung; assay: dynamic compliance, fetal rabbit model; assay type: in vivo; details: single animal per line
Protocol: A subject polypeptide was first admixed with solvent as described in Example 3. […]
Surfactant was instilled in rabbit fetal lung by injection into the trachea from a single syringe of the following three components such that the components exit the syringe in the following order: (1) 0.05 ml air; (2) 0.1 ml of a synthetic surfactant prepared in Example 4A or either 2 mg of PL or 2 mg of native surfactant; and (3) 0.1 ml air.
From one syringe, a 0.1 ml aliquot of synthetic surfactant prepared as described in Example 4A (or 2 mg of NS or of PL), was instilled into the rabbit trachea as described above, followed by injection of 0.05 ml lactated Ringer's Solution and 0.2 ml air from a second syringe.
From one syringe, 0.1 ml of a synthetic surfactant prepared as described in Example 4A (or 2 mg of NS or of PL), 0.15 ml air, 0.1 ml saline, and 0.3 ml air were injected into the trachea as described above. Two subsequent aliquots of 0.3 ml air were given.
The surfactant activity of exemplary polypeptides of this invention was studied using the methods described in detail previously by Revak, et al, Am. Rev. Respir. Dis. 134: […] (1986), with the exceptions noted hereinbelow.
Twenty-seven day gestation fetal rabbits were delivered by hysterotomy and immediately injected with 0.05 ml Norcuron (Organon, Inc., N.J.) to prevent spontaneous breathing. The fetal rabbits were then weighed and a small cannula was inserted into the trachea by tracheotomy surfactant prepared as described above was then instilled into the fetal rabbit lung by one of the above instillation protocols.
Following instillation the rabbit was placed in a specially designed plethysmograph (containing a Celesco transducer) connected to a ventilator (Baby Bird, Baby Bird Corp., Palm Springs, Calif.) and the instilled lung was ventilated at a rate of 30 cycles per minute with a peak inspiratory pressure of 25 cm H2O, a positive end expiratory pressure of 4 cm H2O and an inspiratory time of 0.5 seconds. In some studies, dynamic compliance measurements were made at various times throughout the ventilation procedure. In others, static compliance measurements were made following ventilation.
Using the plethysmograph, dynamic compliance measurements were made at various times throughout a 60 minute ventilation period. […] Compliance was calculated by the formula below. [formula]
The above equation was solved with a multiple linear regression for C and R. The compliance (C) represents the elastic nature of the lungs and the resistance (R) represents the pressure necessary to overcome the resistance to the flow of gas into and out of the lungs.

[4] = 2.5 μg of peptide per μl of solvent, solvent H2O
[5] = 2.5 mg of polypeptide per ml of solvent, solvent 75% chloroform 25% methanol

## RLLLLCLLLRLLLLCLLLRLL [RCL-2]
[1]; PL (DPPC:PG 3:1) 10 mg/ml
  Pressure Gradient 15″: 0.00 cm of H2O
  Pressure Gradient 1′: 0.00 cm of H2O
  Pressure Gradient 5′: 0.00 cm of H2O
[2]; 2.5 mg of polypeptide per ml of solvent, solvent 67% chloroform 33% methanol
  Admixture Formed: suspention

## ERYSVILLDTLLGRM [p51-65]
[2]; [4]
  Admixture Formed: suspension

## RVVPLVAGGICQCLAERYSVILLDTLLGRMLPQLVCRLVLRCSMDD [p36-81]
[1]; PL (DPPC:PG 3:1) 10 mg/ml
  Pressure Gradient 15″: 0.90 cm of H2O
  Pressure Gradient 1′: 0.87 cm of H2O
  Pressure Gradient 5′: 0.79 cm of H2O
[2]; 2.5 mg of polypeptide per ml of solvent, solvent 50% chloroform 0% methanol
  Admixture Formed: suspension
[3]; 5% peptide to PL, Protocol 3
  Dynamic Compliance, 30 minutes after surfactant instillation: 255 ml air/cm H2O (g body weight × 10^6) and 245 ml air/cm H2O (g body weight × 10^6)
  Dynamic Compliance, 60 minutes after surfactant instillation: 146* ml air/cm H2O (g body weight × 10^6) and 291 ml air/cm H2O (g body weight × 10^6)
[3]; 10% peptide to PL, Protocol 2
  Dynamic Compliance, 30 minutes after surfactant instillation: 154 ml air/cm H2O (g body weight × 10^6) and 252 ml air/cm H2O (g body weight × 10^6)
  Dynamic Compliance, 60 minutes after surfactant instillation: 1,162 ml air/cm H2O (g body weight × 10^6) and 623 ml air/cm H2O (g body weight × 10^6)

## DTLLGRMLPQLVCRLVLRCSMDD [p59-81]
[1]; PL (DPPC:PG 3:1) 4 mg/ml
  Pressure Gradient 15″: 1.08 cm of H2O
  Pressure Gradient 1′: 1.02 cm of H2O
  Pressure Gradient 5′: 0.75 cm of H2O
[2]; 2.5 mg of polypeptide per ml of solvent, solvent 68% chloroform 32% methanol
  Admixture Formed: solution

## RLLLLRLLLLRLLLLRLLLLR [RL4]
[1]; PL (DPPC:PG 3:1) 4 mg/ml
  Pressure Gradient 15″: 0.58 cm of H2O
  Pressure Gradient 1′: 0.65 cm of H2O
  Pressure Gradient 5′: 0.33 cm of H2O
[2]; 2.5 mg of polypeptide per ml of solvent, solvent 32% chloroform 68% methanoi
  Admixture Formed: solution

## RLLLLCLLLRLLLLCLLLR [RCL-1]
[1]; PL (DPPC:PG 3:1) 10 mg/ml
  Pressure Gradient 15″: 0.50 cm of H2O
  Pressure Gradient 1′: 0.59 cm of H2O
  Pressure Gradient 5′: 0.06 cm of H2O
[2]; 2.5 mg of polypeptide per ml of solvent, solvent 79% chloroform 21% methanol
  Admixture Formed: suspension

## VAQVCRVVPLVAGGI [p31-45]
[2]; [4]
  Admixture Formed: solution

## RLLLLLLLLRLLLLLLLLRLL [RL8]
[1]; PL (DPPC:PG 3:1) 10 mg/ml
  Pressure Gradient 15″: 0.68 cm of H2O
  Pressure Gradient 1′: 0.69 cm of H2O
  Pressure Gradient 5′: 0.19 cm of H2O
[2]; 2.5 mg of polypeptide per ml of solvent, solvent 19% chloroform 81% methanol
  Admixture Formed: suspension

## ERYSVILLDTLLGRMLPQLVCRLVLRCSMDD [p51-81]
[1]; PL (DPPC:PG 3:1) 10 mg/ml
  Pressure Gradient 15″: 0.94 cm of H2O
  Pressure Gradient 1′: 0.86 cm of H2O
  Pressure Gradient 5′: 0.64 cm of H2O
[2]; 2.5 mg of polypeptide per ml of solvent, solvent 50% chloroform 50% methanol
  Admixture Formed: suspension

## LPQLVCRLVLRCSMDD [p66-81]
[1]; PL (DPPC:PG 3:1) 4 mg/ml
  Pressure Gradient 15″: 1.22 cm of H2O
  Pressure Gradient 1′: 1.11 cm of H2O
  Pressure Gradient 5′: 0.84 cm of H2O
[2]; 2.5 μg of peptide per μl of solvent, solvent methanol:H2O
  Admixture Formed: suspension
[2]; 2.5 mg of polypeptide per ml of solvent, solvent 40% DMF 60% chloroform
  Admixture Formed: suspension

## RLLLLCLLLRLLLLCLLLRLLLLCLLLR [RCL-3]
[1]; PL (DPPC:PG 3:1) 10 mg/ml
  Pressure Gradient 15″: 0.55 cm of H2O
  Pressure Gradient 1′: 0.51 cm of H2O
  Pressure Gradient 5′: 0.33 cm of H2O
[2]; [5]
  Admixture Formed: suspension

## CQCLAERYSVILLDTLLGRMLPQLVCRLVLR [p46-76]
[1]; PL (DPPC:PG 3:1) 10 mg/ml
  Pressure Gradient 15″: 0.90 cm of H2O
  Pressure Gradient 1′: 0.80 cm of H2O
  Pressure Gradient 5′: 0.62 cm of H2O
[2]; 2.5 mg of polypeptide per ml of solvent, solvent 64% chloroform 36% methanol
  Admixture Formed: solution

## ERYSVILLDTLLGRMLPQLVCR [p51-72]
[1]; PL (DPPC:PG 3:1) 10 mg/ml
  Pressure Gradient 15″: 1.15 cm of H2O
  Pressure Gradient 1′: 0.76 cm of H2O
  Pressure Gradient 5′: 0.33 cm of H2O
[2]; [5]
  Admixture Formed: suspension

## CRALIKRIQAMIPKG [p11-25]
[2]; [4]
  Admixture Formed: solution

## VAGGICQCLAERYSV [p41-55]
[2]; [4]
  Admixture Formed: solution

## RRLLLLLLLRRLLLLLLLRRL [RL7]
[1]; PL (DPPC:PG 3:1) 4 mg/ml
  Pressure Gradient 15″: 1.65 cm of H2O
  Pressure Gradient 1′: 1.25 cm of H2O
  Pressure Gradient 5′: 1.00 cm of H2O
[2]; 2.5 mg of polypeptide per ml of solvent, solvent 49% chloroform 51% methanol
  Admixture Formed: solution

## SVILLDTLLGRMLPQLVCR [p54-72]
[1]; PL (DPPC:PG 3:1) 10 mg/ml
  Pressure Gradient 15″: 1.28 cm of H2O
  Pressure Gradient 1′: 0.92 cm of H2O
  Pressure Gradient 5′: 0.38 cm of H2O
[2]; 2.5 mg of polypeptide per ml of solvent, solvent 76% chloroform 24% methanol
  Admixture Formed: suspension

## SVILLDTLLGRMLPQLVCRLVLR [p54-76]
[1]; PL (DPPC:PG 3:1) 10 mg/ml
  Pressure Gradient 15″: 0.92 cm of H2O
  Pressure Gradient 1′: 0.82 cm of H2O
  Pressure Gradient 5′: 0.23 cm of H2O
[2]; 2.5 mg of polypeptide per ml of solvent, solvent 71% chloroform 24% methanol
  Admixture Formed: suspension

## p74-81: eight amino acid residue control peptide, residues 74-81 of SEQ ID NO 12 (SP18), does not conform to the teachings of the invention (VLRCSMDD) [reference compound]
[1]; PL (DPPC:PG 3:1) 4 mg/ml
  Pressure Gradient 15″: 2.37 cm of H2O
  Pressure Gradient 1′: 2.32 cm of H2O
  Pressure Gradient 5′: 2.31 cm of H2O
[1]; peptide admixed with phospholipids (DPPC:PG 3:1), bubble assay
  surfactant activity compared with the phospholipids alone: did not form a PS having a greater activity than the phospholipid alone
[2]; [4]
  Admixture Formed: solution
[2]; 2.5 mg of polypeptide per ml of solvent, solvent water
  Admixture Formed: solution

## LLGRMLPQLVCRLVL [p61-75]
[2]; 2.5 μg of peptide per μl of solvent, solvent methanol
  Admixture Formed: suspension

## MIPKGALAVAVAQVC [p21-35]
[2]; 2.5 μg of peptide per μl of solvent, solvent Chloroform
  Admixture Formed: suspension

## C RLVLRCSMDD (N-terminal Cys) [p71-81]
[2]; [4]
  Admixture Formed: suspension
